Source: patent US9695155B2, “Herbicidal substituted pyrimidinyloxy benzene compounds” (E. I. DU PONT DE NEMOURS AND COMPANY, priority 2013, dated 2017)

How the values were obtained:
wild mustard = assay: Test D postemergence; assay type: in vivo, Sinapis arvensis; conditions: Brassica, post-emergence
Outline: (§1)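 Seeds sown in silt loam soil got preemergence sprays; plants in peat/vermiculite potting medium were sprayed postemergence at 2–18 cm (1- to 4-leaf stage). Chemicals were formulated in a non-phytotoxic solvent mixture with surfactant. After 7 to 21 days in a controlled environment, injury was rated visually versus controls, 0 (no effect) to 100 (complete control).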

Italian ryegrass = assay: Test F preemergence; assay type: in vivo, Lolium multiflorum; conditions: 21 days, scale 0 to 100
Description: (§2) Seeds of plant species selected from bermudagrass (Cynodon dactylon), surinam grass (Brachiaria decumbens), large (Lg) crabgrass (Digitaria sanguinalis), crabgrass, naked (naked crabgrass, Digitaria nuda), foxtail, green (green foxtail, Setaria viridis), johnsongrass (Sorghum halepense), kochia (Kochia scoparia), morningglory (pitted morningglory, Ipomoea lacunosa), nutsedge, purple (purple nutsedge, Cyperus rotundus), ragweed (common ragweed, Ambrosia elatior), mustard, black (black mustard, Brassica nigra), guineagrass (Panicum maximum), dallisgrass (Paspalum dilatatum), barnyardgrass (Echinochloa crus-galli), sandbur (southern sandbur, Cenchrus echinatus), sowthistle (common sowthistle, Sonchus oleraceous), Italian ryegrass (Lolium multiflorum), signalgrass (broadleaf signalgrass, Brachiaria platyphylla), dayflower (Virginia (VA) dayflower, Commelina virginica), bluegrass (annual bluegrass, Poa annua), quackgrass (Elytrigia repens), mallow (common mallow, Malva sylvestris), buckwheat, wild (wild buckwheat, Polygonum convolvulus), leafy spurge (Euphorbia esula), chickweed (common chickweed, Stellaria media), wild poinsettia (Euphorbia heterophylla), and pigweed (Amaranthus retroflexus) were planted into a blend of loam soil and sand and treated preemergence with test chemicals formulated in a non-phytotoxic solvent mixture which included a surfactant.
(§3) Treated plants and controls were maintained in a greenhouse for 21 days, after which time all species were compared to controls and visually evaluated. Plant response ratings, summarized in Table F, are based on a scale of 0 to 100 where 0 is no effect and 100 is complete control. A dash (-) response means no test result.

field violet = assay: Test D preemergence; assay type: in vivo, Viola arvensis; conditions: Viola arvensis, pre-emergence
Outline: as §1

quackgrass = assay: Test F preemergence; assay type: in vivo, Elytrigia repens; conditions: 21 days, scale 0 to 100
Description: as §2, §3

pigweed = assay: Test F preemergence; assay type: in vivo, Amaranthus retroflexus; conditions: 21 days, scale 0 to 100
Description: as §2, §3

winter barley = assay: Test D postemergence; assay type: in vivo, Hordeum vulgare; conditions: Hordeum vulgare, post-emergence, Postemergence, scale 0 to 100 (0 no effect, 100 complete control), read-out: Plant response rating, Barley, Winter
Outline: as §1

spring barley = assay: Test D postemergence; assay type: in vivo, Hordeum vulgare; conditions: Hordeum vulgare, post-emergence, Postemergence, scale 0 to 100 (0 no effect, 100 complete control), read-out: Plant response rating, Barley, Spring
Outline: as §1

bromegrass, downy = assay: Test D preemergence; assay type: in vivo, Bromus tectorum; conditions: Bromus tectorum, pre-emergence
Outline: as §1

blackgrass = assay: Test D postemergence; assay type: in vivo, Alopecurus myosuroides; conditions: Alopecurus myosuroides, post-emergence, Postemergence, scale 0 to 100 (0 no effect, 100 complete control), read-out: Plant response rating, Blackgrass
Outline: as §1

kochia = assay: Test D preemergence; assay type: in vivo, Kochia scoparia; conditions: Bassia scoparia, pre-emergence
Outline: as §1

green foxtail = assay: Test D postemergence; assay type: in vivo, Setaria viridis; conditions: Setaria viridis, post-emergence
Outline: as §1

deadnettle = assay: Test D postemergence; assay type: in vivo, Lamium amplexicaule; conditions: Lamium amplexicaule, post-emergence
Outline: as §1

N#Cc1cccc(Oc2ncc(Cl)cn2)c1-n1cc(OCC(F)(F)F)cn1 [Compound 274, 3-[(5-chloro-2-pyrimidinyl)oxy]-2-[4-(2,2,2-trifluoroethoxy)-1H-pyrazol-1-yl]benzonitrile]
pest or weed control at 16 g/ha (wild mustard; 16 g ai/ha, scale 0-100, read-out: Plant response rating, Mustard, Wild): 70%
pest or weed control at 31 g/ha (wild mustard; 31 g ai/ha, scale 0 to 100 (0 no effect, 100 complete control), read-out: Plant response rating, Mustard, Wild): 75%
pest or weed control at 62 g/ha (wild mustard; 62 g ai/ha, scale 0 to 100 (0 no effect, 100 complete control), read-out: Plant response rating, Mustard, Wild): 100%
pest or weed control at 125 g/ha (wild mustard; 125 g ai/ha, scale 0 to 100 (0 no effect, 100 complete control), read-out: Plant response rating, Mustard, Wild): 100%
Plant response rating, Ryegrass, Italian (Italian ryegrass; 16 g ai/ha): 35
Plant response rating, Ryegrass, Italian (Italian ryegrass; 31 g ai/ha): 40
Plant response rating, Ryegrass, Italian (Italian ryegrass; 62 g ai/ha): 70
Plant response rating, Ryegrass, Italian (Italian ryegrass; 125 g ai/ha): 75
Plant response rating, Ryegrass, Italian (Italian ryegrass; 250 g ai/ha): 100
pest or weed control at 16 g/ha (field violet; 16 g ai/ha, scale 0 (no effect) to 100 (complete control), read-out: Plant response rating, Field Violet): 75%
pest or weed control at 31 g/ha (field violet; 31 g ai/ha, scale 0-100, read-out: Plant response rating, Field Violet): 100%
pest or weed control at 62 g/ha (field violet; 62 g ai/ha, scale 0-100, read-out: Plant response rating, Field Violet): 100%
pest or weed control at 125 g/ha (field violet; 125 g ai/ha, scale 0-100, read-out: Plant response rating, Field Violet): 100%
Plant response rating, Quackgrass (quackgrass; 16 g ai/ha): 40
Plant response rating, Quackgrass (quackgrass; 31 g ai/ha): 40
Plant response rating, Quackgrass (quackgrass; 62 g ai/ha): 70
Plant response rating, Quackgrass (quackgrass; 125 g ai/ha): 85
Plant response rating, Quackgrass (quackgrass; 250 g ai/ha): 98
Plant response rating, Pigweed (pigweed; 16 g ai/ha): 100
Plant response rating, Pigweed (pigweed; 31 g ai/ha): 100
Plant response rating, Pigweed (pigweed; 62 g ai/ha): 100
Plant response rating, Pigweed (pigweed; 125 g ai/ha): 100
Plant response rating, Pigweed (pigweed; 250 g ai/ha): 100
plant injury at 16 g/ha (winter barley; 16 g ai/ha): 10%
plant injury at 31 g/ha (winter barley; 31 g ai/ha): 20%
plant injury at 62 g/ha (winter barley; 62 g ai/ha): 25%
plant injury at 125 g/ha (winter barley; 125 g ai/ha): 30%
plant injury at 16 g/ha (spring barley; 16 g ai/ha): 20%
plant injury at 31 g/ha (spring barley; 31 g ai/ha): 25%
plant injury at 62 g/ha (spring barley; 62 g ai/ha): 30%
plant injury at 125 g/ha (spring barley; 125 g ai/ha): 35%
pest or weed control at 16 g/ha (bromegrass, downy; 16 g ai/ha, scale 0 (no effect) to 100 (complete control), read-out: Plant response rating, Bromegrass, Downy): 0%
pest or weed control at 31 g/ha (bromegrass, downy; 31 g ai/ha, scale 0-100, read-out: Plant response rating, Bromegrass, Downy): 5%
pest or weed control at 62 g/ha (bromegrass, downy; 62 g ai/ha, scale 0-100, read-out: Plant response rating, Bromegrass, Downy): 5%
pest or weed control at 125 g/ha (bromegrass, downy; 125 g ai/ha, scale 0-100, read-out: Plant response rating, Bromegrass, Downy): 35%
pest or weed control at 62 g/ha (blackgrass; 62 g ai/ha): 20%
pest or weed control at 16 g/ha (blackgrass; 16 g ai/ha): 10%
pest or weed control at 31 g/ha (blackgrass; 31 g ai/ha): 15%
pest or weed control at 125 g/ha (blackgrass; 125 g ai/ha): 30%
pest or weed control at 16 g/ha (kochia; 16 g ai/ha, scale 0 (no effect) to 100 (complete control), read-out: Plant response rating, Kochia): 0%
pest or weed control at 31 g/ha (kochia; 31 g ai/ha, scale 0-100, read-out: Plant response rating, Kochia): 70%
pest or weed control at 62 g/ha (kochia; 62 g ai/ha, scale 0-100, read-out: Plant response rating, Kochia): 65%
pest or weed control at 125 g/ha (kochia; 125 g ai/ha, scale 0-100, read-out: Plant response rating, Kochia): 100%
pest or weed control at 16 g/ha (green foxtail; 16 g ai/ha, scale 0-100, read-out: Plant response rating, Foxtail, Green): 15%
pest or weed control at 31 g/ha (green foxtail; 31 g ai/ha, scale 0 to 100 (0 no effect, 100 complete control), read-out: Plant response rating, Foxtail, Green): 20%
pest or weed control at 62 g/ha (green foxtail; 62 g ai/ha, scale 0 to 100 (0 no effect, 100 complete control), read-out: Plant response rating, Foxtail, Green): 25%
pest or weed control at 125 g/ha (green foxtail; 125 g ai/ha, scale 0 to 100 (0 no effect, 100 complete control), read-out: Plant response rating, Foxtail, Green): 45%
pest or weed control at 16 g/ha (deadnettle; 16 g ai/ha, scale 0-100, read-out: Plant response rating, Deadnettle): 50%
pest or weed control at 31 g/ha (deadnettle; 31 g ai/ha, scale 0 to 100 (0 no effect, 100 complete control), read-out: Plant response rating, Deadnettle): 45%
pest or weed control at 62 g/ha (deadnettle; 62 g ai/ha, scale 0 to 100 (0 no effect, 100 complete control), read-out: Plant response rating, Deadnettle): 60%
pest or weed control at 125 g/ha (deadnettle; 125 g ai/ha, scale 0 to 100 (0 no effect, 100 complete control), read-out: Plant response rating, Deadnettle): 70%

N#Cc1cccc(Oc2ncc(F)cn2)c1-n1cc(C(F)(F)F)cn1 [Compound 79, 3-[(5-fluoro-2-pyrimidinyl)oxy]-2-[4-(trifluoromethyl)-1H-pyrazol-1-yl]benzonitrile]
Plant response rating, Ryegrass, Italian (Italian ryegrass; 16 g ai/ha): 30
Plant response rating, Ryegrass, Italian (Italian ryegrass; 31 g ai/ha): 75
Plant response rating, Ryegrass, Italian (Italian ryegrass; 62 g ai/ha): 98
Plant response rating, Ryegrass, Italian (Italian ryegrass; 125 g ai/ha): 100
Plant response rating, Ryegrass, Italian (Italian ryegrass; 250 g ai/ha): 100
Plant response rating, Quackgrass (quackgrass; 16 g ai/ha): 40
Plant response rating, Quackgrass (quackgrass; 31 g ai/ha): 70
Plant response rating, Quackgrass (quackgrass; 62 g ai/ha): 95
Plant response rating, Quackgrass (quackgrass; 125 g ai/ha): 98
Plant response rating, Quackgrass (quackgrass; 250 g ai/ha): 100
Plant response rating, Pigweed (pigweed; 16 g ai/ha): 100
Plant response rating, Pigweed (pigweed; 31 g ai/ha): 100
Plant response rating, Pigweed (pigweed; 62 g ai/ha): 100
Plant response rating, Pigweed (pigweed; 125 g ai/ha): 100
Plant response rating, Pigweed (pigweed; 250 g ai/ha): 100
